Source: PMC7151078, “A Novel NMDA Receptor Antagonist Protects against Cognitive Decline Presented by Senescent Mice” (Pharmaceutics, 2020)

Test: Microsomal stability in rat microsomes
Format: in vitro ADME
Details: 37 °C, 0-60 min
Protocol: The human, rat, and mice microsomes employed were purchased from Tebu-Xenotech. The compound was incubated at 37 °C with the microsomes in a 50 mM phosphate buffer (pH = 7.4) containing 30 mM MgCl2, 10 mM NADP, 100 mM glucose-6-phosphate and 20 U/mL glucose-6-phosphate-dehydrogenase. Samples (75 µL) were taken from each well at 0, 10, 20, 40, and 60 min and transferred to a plate containing 4 °C 75 µL acetonitrile. Then, 30 µL of 0.5% formic acid in water was added to improve the chromatographic conditions. The plate was centrifuged (46,000× g, 30 min) and supernatants were taken and analyzed in a UPLC-MS/MS (Xevo-TQD, Waters) by employing a BEH C18 column and an isocratic gradient of 0.1% formic acid in water: 0.1% formic acid acetonitrile (60:40) for 5 minutes and a flow of 0.25 mL/min. The metabolic stability of the compounds was calculated from the logarithm of remaining compounds at each time point studied.

Compound: CC12CC3CC1(C)C1(C)CC3(CN)CC21C.Cl [RL-208, (3,4,8,9-tetramethyltetracyclo [4.4.0.0^3,9.0^4,8]dec-1-yl)methylamine hydrochloride]
- microsomal stability: good
